# Data taken from patent US7326721B2 (Hypnion, Inc., priority 2003, dated 2008).
# pIC50, pKi: −log10 of the molar value. Where two headings read alike, the source gives them in different places.
# What was measured:
# [1] = biological target: T1, M1 muscarinic receptor (Homo sapiens, UniProt P11229); test: Muscarinic M1 binding assay ([3H]-scopolamine, N-methyl chloride); design: purchased PerkinElmer, Inc., Wellesley, Mass; host or cells: CHO cells
# T1 sequence (P11229 1-460): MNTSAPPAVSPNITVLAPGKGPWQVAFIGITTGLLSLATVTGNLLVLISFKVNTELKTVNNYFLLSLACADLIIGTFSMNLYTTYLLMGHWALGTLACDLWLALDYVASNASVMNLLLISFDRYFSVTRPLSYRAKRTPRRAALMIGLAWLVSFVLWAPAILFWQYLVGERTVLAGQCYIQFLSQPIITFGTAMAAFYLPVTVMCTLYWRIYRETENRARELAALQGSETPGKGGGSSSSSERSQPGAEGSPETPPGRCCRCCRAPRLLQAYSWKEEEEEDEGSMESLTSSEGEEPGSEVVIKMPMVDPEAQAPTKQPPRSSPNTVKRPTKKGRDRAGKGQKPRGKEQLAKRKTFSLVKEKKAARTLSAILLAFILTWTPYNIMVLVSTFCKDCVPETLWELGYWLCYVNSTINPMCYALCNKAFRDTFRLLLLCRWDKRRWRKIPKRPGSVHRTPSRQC
# [2] = biological target: Thromboxane A2 (h) (Homo sapiens, UniProt P21731); test: Table 12 panel: Thromboxane A2; conditions: 1.0E−6, average N=2, read-out: percentage inhibition of specific binding
# Excerpt: (§1) The percentage inhibition (average; N=2) for these receptors is shown below in Table 12.
# (§2) Values in Table 12 are expressed as percentage inhibition of specific binding, and these values represent the average of replicate tubes at each of the concentrations tested.
# [3] = biological target: Neurokinin, NK1 (Homo sapiens, UniProt P25103); test: Table 12 panel: NK1; conditions: 1.0E−6, average N=2, read-out: percentage inhibition of specific binding
# Excerpt: as §1, §2
# [4] = biological target: T2, M2 muscarinic receptor (Homo sapiens, UniProt P08172); test: Muscarinic M2 binding assay; design: purchased PerkinElmer, Inc., Wellesley, Mass; host or cells: CHO cells
# T2 sequence (P08172 1-466): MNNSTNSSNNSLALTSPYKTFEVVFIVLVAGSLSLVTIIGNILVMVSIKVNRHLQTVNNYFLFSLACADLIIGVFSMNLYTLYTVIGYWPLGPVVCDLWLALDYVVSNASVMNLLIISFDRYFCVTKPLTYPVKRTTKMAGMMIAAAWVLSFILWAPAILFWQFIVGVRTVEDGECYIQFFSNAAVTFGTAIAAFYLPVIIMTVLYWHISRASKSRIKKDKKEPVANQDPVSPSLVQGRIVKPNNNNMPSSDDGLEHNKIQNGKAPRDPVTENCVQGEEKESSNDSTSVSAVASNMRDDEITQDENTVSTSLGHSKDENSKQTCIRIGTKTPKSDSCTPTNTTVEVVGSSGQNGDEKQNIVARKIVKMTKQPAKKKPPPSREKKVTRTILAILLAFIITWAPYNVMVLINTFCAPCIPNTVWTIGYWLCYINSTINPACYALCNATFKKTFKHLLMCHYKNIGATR
# [5] = test system: adult male Wistar rats; test: SCORE-2000 sleep-wakefulness, locomotor activity and body temperature monitoring; assay type: in vivo, rat
# [6] = biological target: M3 muscarinic receptor (Homo sapiens, UniProt P20309); test: Muscarinic M3 binding assay; design: purchased PerkinElmer, Inc., Wellesley, Mass; host or cells: CHO cells
# [7] = test system: Glutamate, NMDA Agonist Site; test: Table 12 panel: Glutamate, NMDA Agonist; assay type: binding; conditions: 1.0E−6, average N=2
# Excerpt: as §1, §2
# [8] = biological target: T3, Orphenin (hr) (Homo sapiens, UniProt P41146); test: Table 12 panel: Orphenin; conditions: 1.0E−6, average N=2, read-out: percentage inhibition of specific binding
# T3 construct: expressed in transfected cells
# Excerpt: as §1, §2
# [9] = biological target: T4, H1 histamine receptor (Bos taurus, UniProt P30546); test: Histamine H1 competitive binding assay ([3H]pyrilamine); design: species or system bovine
# T4 construct: the receptors were obtained from bovine cerebellar membrane tissue; from tissue; host or cells: bovine cerebellar membranes
# [10] = biological target: Choline Acetyltransferase (Homo sapiens, UniProt P28329); test: Table 12 panel: Choline Acetyltransferase; assay type: biochemical; conditions: 1.0E−6, average N=2
# Excerpt: as §1, §2
# [11] = test system: CYP 3A; test: Cytochrome P450 inhibition: CYP 3A; assay type: in vitro ADME; conditions: human microsomal preparation
# Method: Cytochrome P450 inhibition was studied with HY2901 in vitro. […] In addition, the in vitro rate of metabolism in rat, dog, monkey, and human hepatocyte cultures was determined for HY2901.
# [12] = 1 h, read-out: percentage inhibition of specific binding
# T4 sequence (P30546 whole entry): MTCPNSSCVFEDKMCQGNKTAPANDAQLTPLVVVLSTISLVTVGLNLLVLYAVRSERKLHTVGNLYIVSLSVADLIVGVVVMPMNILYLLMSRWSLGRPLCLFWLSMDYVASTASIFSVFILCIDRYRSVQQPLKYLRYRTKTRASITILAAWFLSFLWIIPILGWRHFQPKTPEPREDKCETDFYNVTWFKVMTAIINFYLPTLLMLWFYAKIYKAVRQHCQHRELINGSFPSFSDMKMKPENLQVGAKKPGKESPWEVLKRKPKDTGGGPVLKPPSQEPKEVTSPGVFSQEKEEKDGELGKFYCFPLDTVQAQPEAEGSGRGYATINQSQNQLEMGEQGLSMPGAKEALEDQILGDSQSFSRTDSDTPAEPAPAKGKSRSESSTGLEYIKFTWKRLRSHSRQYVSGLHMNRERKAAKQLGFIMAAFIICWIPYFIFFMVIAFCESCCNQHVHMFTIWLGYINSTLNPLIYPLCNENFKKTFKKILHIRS
# Sequence of M3 muscarinic receptor (P20309 whole entry): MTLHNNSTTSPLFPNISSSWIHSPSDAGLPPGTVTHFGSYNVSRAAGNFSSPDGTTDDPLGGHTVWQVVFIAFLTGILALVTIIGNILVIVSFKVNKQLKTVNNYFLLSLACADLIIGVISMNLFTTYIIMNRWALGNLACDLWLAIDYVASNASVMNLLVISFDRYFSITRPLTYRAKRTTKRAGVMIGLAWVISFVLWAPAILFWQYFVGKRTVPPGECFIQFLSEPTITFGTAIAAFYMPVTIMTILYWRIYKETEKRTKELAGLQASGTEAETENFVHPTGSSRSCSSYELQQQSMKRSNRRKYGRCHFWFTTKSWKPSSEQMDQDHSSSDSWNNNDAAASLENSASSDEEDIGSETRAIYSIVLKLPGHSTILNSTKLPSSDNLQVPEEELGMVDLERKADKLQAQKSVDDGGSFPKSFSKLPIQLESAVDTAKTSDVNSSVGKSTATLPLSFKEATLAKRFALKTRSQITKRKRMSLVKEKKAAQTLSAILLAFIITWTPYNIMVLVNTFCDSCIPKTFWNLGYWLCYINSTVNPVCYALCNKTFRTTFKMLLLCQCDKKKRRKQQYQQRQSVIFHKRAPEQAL
# Sequence of Thromboxane A2 (h) (P21731 whole entry): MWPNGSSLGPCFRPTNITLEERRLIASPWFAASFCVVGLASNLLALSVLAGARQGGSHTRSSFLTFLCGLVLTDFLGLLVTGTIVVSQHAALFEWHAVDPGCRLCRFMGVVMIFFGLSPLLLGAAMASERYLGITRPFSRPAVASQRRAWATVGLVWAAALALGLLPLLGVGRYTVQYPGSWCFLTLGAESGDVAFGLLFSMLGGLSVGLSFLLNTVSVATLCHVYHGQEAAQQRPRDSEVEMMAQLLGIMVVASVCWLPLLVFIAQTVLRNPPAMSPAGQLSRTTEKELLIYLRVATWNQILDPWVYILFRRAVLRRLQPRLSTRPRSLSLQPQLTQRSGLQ
# Sequence of Choline Acetyltransferase (P28329 whole entry): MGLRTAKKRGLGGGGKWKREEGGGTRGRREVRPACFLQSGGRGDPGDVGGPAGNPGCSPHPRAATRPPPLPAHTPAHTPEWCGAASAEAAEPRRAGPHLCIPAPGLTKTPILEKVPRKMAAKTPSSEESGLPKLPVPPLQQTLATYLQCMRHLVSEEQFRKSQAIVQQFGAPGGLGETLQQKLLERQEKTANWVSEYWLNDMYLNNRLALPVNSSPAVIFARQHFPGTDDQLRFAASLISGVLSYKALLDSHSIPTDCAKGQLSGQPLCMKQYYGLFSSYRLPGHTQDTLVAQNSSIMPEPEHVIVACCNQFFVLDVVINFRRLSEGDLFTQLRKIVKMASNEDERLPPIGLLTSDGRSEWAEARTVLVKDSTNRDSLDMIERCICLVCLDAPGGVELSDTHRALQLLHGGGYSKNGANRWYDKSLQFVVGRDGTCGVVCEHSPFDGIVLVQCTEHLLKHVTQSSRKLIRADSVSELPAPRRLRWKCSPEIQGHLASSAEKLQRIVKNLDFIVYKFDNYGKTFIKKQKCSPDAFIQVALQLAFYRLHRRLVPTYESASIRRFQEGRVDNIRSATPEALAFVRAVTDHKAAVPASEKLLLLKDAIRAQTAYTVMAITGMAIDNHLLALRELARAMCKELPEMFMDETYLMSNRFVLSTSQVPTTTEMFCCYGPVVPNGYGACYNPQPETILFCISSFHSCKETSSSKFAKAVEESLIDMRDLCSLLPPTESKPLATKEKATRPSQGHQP
# T3 sequence (P41146 whole entry): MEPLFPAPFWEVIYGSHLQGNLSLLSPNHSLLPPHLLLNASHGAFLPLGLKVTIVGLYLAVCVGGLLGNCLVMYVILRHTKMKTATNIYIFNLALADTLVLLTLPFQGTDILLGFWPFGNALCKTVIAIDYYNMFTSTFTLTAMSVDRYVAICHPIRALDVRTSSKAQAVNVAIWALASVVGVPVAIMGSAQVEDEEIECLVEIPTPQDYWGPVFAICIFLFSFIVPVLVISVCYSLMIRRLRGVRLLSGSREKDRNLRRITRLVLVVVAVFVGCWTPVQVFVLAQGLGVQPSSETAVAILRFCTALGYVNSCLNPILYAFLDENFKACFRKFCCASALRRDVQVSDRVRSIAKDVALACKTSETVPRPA
# Sequence of Neurokinin, NK1 (P25103 whole entry): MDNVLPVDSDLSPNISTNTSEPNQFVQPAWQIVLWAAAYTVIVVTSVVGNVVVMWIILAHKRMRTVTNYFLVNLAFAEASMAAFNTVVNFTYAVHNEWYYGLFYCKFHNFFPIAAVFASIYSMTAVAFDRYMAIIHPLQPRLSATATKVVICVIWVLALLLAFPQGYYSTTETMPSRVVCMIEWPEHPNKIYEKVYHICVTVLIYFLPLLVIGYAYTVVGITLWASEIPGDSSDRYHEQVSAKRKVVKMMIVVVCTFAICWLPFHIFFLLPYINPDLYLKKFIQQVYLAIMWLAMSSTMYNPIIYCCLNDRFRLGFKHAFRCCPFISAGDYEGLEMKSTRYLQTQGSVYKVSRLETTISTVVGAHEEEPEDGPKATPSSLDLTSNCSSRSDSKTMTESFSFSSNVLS
compound,measurement,setting,value
CC(CC(=O)O)N1CCC(=C2c3ccc(F)cc3COc3ccccc32)CC1 (stereo not shown) [Compound 37],pIC50,[1],< 5.00
same,pKi,[1],< 5.00
same,inhibition at 1 µM,[1]; [12],5.11%
same,inhibition at 1 µM,[2],6.55%
same,inhibition at 1 µM,[3],10.3%
same,pIC50,[4],< 5.00
same,pKi,[4],< 5.00
same,inhibition at 1 µM,[4]; [12],14.6%
same,REM inhibition,[5]; 10 mg/kg,did not produce any REM inhibition
same,body temperature,[5]; 10 mg/kg,no disproportional reduction
same,locomotor activity (LMA),[5]; 10 mg/kg,no disproportional reduction
same,rebound insomnia,[5]; 10 mg/kg,did not produce any REM inhibition or rebound insomnia
same,"Cumulative NREM sleep time increase, adjusted for baseline and relative to vehicle",[5]; 10 mg/kg PO at CT-18,53 min
same,absolute average sleep bout,[5]; 10 mg/kg PO at CT-18,9 min
same,absolute longest sleep bout post-treatment,[5]; 10 mg/kg PO at CT-18,18.3 min
same,"average sleep bout length increase, adjusted for baseline and relative to vehicle",[5]; 10 mg/kg PO at CT-18,5.3 min
same,"longest sleep bout (LUSB), adjusted for baseline and relative to vehicle",[5]; 10 mg/kg PO at CT-18,10.8 min
same,peak NREM sleep time,[5]; 10 mg/kg PO at CT-18,64 % per hour
same,body temperature,[5]; 30 mg/kg,drop in body temperature occurred only at this high dose
same,locomotor activity (LMA),[5]; 30 mg/kg,no disproportional reduction in LMA
same,rebound insomnia,[5]; 30 mg/kg,No rebound insomnia was observed
same,"Cumulative NREM sleep time increase, adjusted for baseline and relative to vehicle",[5]; 30 mg/kg PO at CT-18,62 min
same,absolute average sleep bout,[5]; 30 mg/kg PO at CT-18,9 min
same,absolute longest sleep bout post-treatment,[5]; 30 mg/kg PO at CT-18,25 min
same,"average sleep bout length increase, adjusted for baseline and relative to vehicle",[5]; 30 mg/kg PO at CT-18,5.6 min
same,"longest sleep bout (LUSB), adjusted for baseline and relative to vehicle",[5]; 30 mg/kg PO at CT-18,17.1 min
same,peak NREM sleep time,[5]; 30 mg/kg PO at CT-18,72 % per hour
same,REM inhibition,[5]; 30 mg/kg at CT-18,did not produce any appreciable REM inhibition
same,pIC50,[6]; M3 receptor binding (Table 19),< 5.00
same,pKi,"[6]; M3 receptor binding (Table 19), read-out: Ki",< 5.00
same,percentage inhibition of specific binding,[7],−5.56%
same,inhibition at 1 µM,[8],3.53%
same,pIC50,[9],7.17
same,pKi,[9],7.59
same,inhibition at 1 µM,[9]; [12],93.1%
same,Slope,[9]; H1 binding curve (Table 13),−0.99
same,percentage inhibition,[10],6.51%
CC(C)(CN1CCC(=C2c3ccc(F)cc3COc3ccccc32)CC1)C(=O)O [Compound 49a],pKi,[1]; read-out: Ki M1,< 5.00
same,pKi,[4]; read-out: Ki M2,< 5.00
same,LUSB,[5]; dose 0.3 mg/kg oral at CT-18,2.8 min
same,NREM,[5]; dose 0.3 mg/kg oral at CT-18,-6.6 min
same,LUSB,[5]; dose 1 mg/kg oral at CT-18,4.3 min
same,NREM,[5]; dose 1 mg/kg oral at CT-18,18.8 min
same,LUSB,[5]; dose 3 mg/kg oral at CT-18,11.6 min
same,NREM,[5]; dose 3 mg/kg oral at CT-18,37.2 min
same,LUSB,[5]; dose 10 mg/kg oral at CT-18,14.1 min
same,NREM,[5]; dose 10 mg/kg oral at CT-18,45.3 min
same,LUSB,[5]; dose 30 mg/kg oral at CT-18,12.9 min
same,NREM,[5]; dose 30 mg/kg oral at CT-18,49.1 min
same,inhibition of CYP 3A activity,[11],did not inhibit
same,pKi,[6]; read-out: Ki M3,< 5.00
same,pKi,[9]; read-out: Ki H1,7.16
